# Results from patent US12662479B2 (Foghorn Therapeutics Inc., priority 2020, dated 2026).
# How the values were obtained:
# HiBit-BRM fusion protein = molecular target: T1, HiBit-BRM fusion protein (Homo sapiens, UniProt P51531); test: HiBiT-BRM cell-based degradation assay (Nano-Glo HiBiT Lytic Detection, 24 h); details: HeLa cells expressing HiBiT-BRM; for DC50: read-out: BRM HiBit Degradation IC50; for BRM HiBit Degradation Maximum measured: top dose 30 μM
# T1 construct: expressed in transfected cells
# Experimental: (§1) Procedure: A stable HeLa cell line expressing HiBiT-BRM was generated. On day 0, 5000 cells were seeded in 40 μL of media into each well of 384-well cell culture plates. On day 1, cells were treated with 120 nL DMSO or 120 nL of 3-fold serially DMSO-diluted compounds (10 points in duplicate with 30 μM as final top dose). Subsequently plates were incubated for 24 h in a standard tissue culture incubator and equilibrated at room temperature for 15 minutes. Nano-Glo HiBiT Lytic Detection System (Promega N3050) reagent was freshly prepared and 20 ul was added to each well. Upon addition of this LgBit-containing reagent, the HiBiT and LgBiT proteins associate to form the luminescent NanoBiT luciferase. The plates were shaken for 10 minutes at room temperature and the bioluminescence read using an EnVision plate reader (PerkinElmer).
# (§2) The degradation % was calculated using the following formula: % degradation=100%−100%×(LumSample−LumLC)/(LumHC−LumLC). DMSO treated cells are employed as High Control (HC) and 2 μM of a known BRM/BRG1 degrader standard treated cells are employed as Low Control (LC).
# [1] = molecular target: T2, HiBit-BRG1 fusion protein (Homo sapiens, UniProt P51532); test: HiBiT-BRG1 cell-based degradation assay (Nano-Glo HiBiT Lytic Detection, 24 h); details: HeLa cells expressing HiBit-BRG1 and LgBit; for DC50: read-out: BRG1 HiBit Degradation IC50; for Dmax: HeLa, top dose 30 μM, read-out: BRG1 HiBit Degradation Maximum measured
# T2 construct: expressed in transfected cells
# Experimental: as §1, with “On day 1, cells were treated with 120 nL DMSO or 120 nL of 3-fold serially DMSO-diluted compounds (10 points in duplicate with 30 μM as final top dose). Subsequently plates were incubated for 24 h in a standard tissue culture incubator and equilibrated at room temperature for 15 minutes.” left out
# For measurement of BRG1 degradation, a stable HeLa cell line expressing HiBit-BRG1 and LgBit was generated. The same protocol as above was then followed.
# as §2
# T1 sequence (P51531 whole entry, the tested form may be a part): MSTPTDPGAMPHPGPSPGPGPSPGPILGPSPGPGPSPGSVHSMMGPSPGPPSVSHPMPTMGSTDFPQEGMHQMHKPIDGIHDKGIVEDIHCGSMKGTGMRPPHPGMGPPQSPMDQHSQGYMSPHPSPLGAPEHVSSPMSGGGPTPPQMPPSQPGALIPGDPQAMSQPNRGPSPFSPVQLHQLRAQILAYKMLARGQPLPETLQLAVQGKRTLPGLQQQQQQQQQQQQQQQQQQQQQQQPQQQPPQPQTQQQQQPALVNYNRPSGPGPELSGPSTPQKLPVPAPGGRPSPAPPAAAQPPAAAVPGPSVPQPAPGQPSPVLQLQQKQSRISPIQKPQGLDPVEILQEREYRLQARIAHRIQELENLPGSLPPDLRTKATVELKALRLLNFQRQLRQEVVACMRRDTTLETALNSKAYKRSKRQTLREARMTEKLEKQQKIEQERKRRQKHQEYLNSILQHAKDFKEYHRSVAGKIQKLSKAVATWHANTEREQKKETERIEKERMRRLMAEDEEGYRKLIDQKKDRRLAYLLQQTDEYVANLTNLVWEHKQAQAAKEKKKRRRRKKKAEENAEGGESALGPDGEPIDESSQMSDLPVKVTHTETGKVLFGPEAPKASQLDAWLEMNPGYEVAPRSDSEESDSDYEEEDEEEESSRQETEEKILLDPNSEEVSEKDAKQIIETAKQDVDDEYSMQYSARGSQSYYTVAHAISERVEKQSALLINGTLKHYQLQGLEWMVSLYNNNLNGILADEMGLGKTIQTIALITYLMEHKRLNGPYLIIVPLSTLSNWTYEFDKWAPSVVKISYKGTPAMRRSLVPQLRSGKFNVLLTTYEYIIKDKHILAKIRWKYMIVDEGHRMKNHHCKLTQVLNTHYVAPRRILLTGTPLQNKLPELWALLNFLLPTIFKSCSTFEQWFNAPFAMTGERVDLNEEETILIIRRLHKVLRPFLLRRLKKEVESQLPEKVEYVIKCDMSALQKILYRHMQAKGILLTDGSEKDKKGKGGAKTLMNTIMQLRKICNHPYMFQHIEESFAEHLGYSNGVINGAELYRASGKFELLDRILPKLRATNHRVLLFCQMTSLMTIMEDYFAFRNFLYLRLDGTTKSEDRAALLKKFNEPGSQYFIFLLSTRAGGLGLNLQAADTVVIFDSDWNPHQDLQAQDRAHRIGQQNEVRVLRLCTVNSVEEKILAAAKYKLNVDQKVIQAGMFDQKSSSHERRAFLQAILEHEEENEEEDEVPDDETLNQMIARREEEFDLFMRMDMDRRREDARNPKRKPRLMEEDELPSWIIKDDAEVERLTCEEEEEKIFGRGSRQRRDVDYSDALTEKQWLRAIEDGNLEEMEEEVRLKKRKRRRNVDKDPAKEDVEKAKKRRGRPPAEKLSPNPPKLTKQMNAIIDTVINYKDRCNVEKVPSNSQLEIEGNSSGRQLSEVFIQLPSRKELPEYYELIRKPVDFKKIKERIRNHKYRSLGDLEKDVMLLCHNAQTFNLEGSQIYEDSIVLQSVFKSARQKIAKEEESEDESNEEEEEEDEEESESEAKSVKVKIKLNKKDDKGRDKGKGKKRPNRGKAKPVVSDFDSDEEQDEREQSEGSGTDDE
# T2 sequence (P51532 whole entry, the tested form may be a part): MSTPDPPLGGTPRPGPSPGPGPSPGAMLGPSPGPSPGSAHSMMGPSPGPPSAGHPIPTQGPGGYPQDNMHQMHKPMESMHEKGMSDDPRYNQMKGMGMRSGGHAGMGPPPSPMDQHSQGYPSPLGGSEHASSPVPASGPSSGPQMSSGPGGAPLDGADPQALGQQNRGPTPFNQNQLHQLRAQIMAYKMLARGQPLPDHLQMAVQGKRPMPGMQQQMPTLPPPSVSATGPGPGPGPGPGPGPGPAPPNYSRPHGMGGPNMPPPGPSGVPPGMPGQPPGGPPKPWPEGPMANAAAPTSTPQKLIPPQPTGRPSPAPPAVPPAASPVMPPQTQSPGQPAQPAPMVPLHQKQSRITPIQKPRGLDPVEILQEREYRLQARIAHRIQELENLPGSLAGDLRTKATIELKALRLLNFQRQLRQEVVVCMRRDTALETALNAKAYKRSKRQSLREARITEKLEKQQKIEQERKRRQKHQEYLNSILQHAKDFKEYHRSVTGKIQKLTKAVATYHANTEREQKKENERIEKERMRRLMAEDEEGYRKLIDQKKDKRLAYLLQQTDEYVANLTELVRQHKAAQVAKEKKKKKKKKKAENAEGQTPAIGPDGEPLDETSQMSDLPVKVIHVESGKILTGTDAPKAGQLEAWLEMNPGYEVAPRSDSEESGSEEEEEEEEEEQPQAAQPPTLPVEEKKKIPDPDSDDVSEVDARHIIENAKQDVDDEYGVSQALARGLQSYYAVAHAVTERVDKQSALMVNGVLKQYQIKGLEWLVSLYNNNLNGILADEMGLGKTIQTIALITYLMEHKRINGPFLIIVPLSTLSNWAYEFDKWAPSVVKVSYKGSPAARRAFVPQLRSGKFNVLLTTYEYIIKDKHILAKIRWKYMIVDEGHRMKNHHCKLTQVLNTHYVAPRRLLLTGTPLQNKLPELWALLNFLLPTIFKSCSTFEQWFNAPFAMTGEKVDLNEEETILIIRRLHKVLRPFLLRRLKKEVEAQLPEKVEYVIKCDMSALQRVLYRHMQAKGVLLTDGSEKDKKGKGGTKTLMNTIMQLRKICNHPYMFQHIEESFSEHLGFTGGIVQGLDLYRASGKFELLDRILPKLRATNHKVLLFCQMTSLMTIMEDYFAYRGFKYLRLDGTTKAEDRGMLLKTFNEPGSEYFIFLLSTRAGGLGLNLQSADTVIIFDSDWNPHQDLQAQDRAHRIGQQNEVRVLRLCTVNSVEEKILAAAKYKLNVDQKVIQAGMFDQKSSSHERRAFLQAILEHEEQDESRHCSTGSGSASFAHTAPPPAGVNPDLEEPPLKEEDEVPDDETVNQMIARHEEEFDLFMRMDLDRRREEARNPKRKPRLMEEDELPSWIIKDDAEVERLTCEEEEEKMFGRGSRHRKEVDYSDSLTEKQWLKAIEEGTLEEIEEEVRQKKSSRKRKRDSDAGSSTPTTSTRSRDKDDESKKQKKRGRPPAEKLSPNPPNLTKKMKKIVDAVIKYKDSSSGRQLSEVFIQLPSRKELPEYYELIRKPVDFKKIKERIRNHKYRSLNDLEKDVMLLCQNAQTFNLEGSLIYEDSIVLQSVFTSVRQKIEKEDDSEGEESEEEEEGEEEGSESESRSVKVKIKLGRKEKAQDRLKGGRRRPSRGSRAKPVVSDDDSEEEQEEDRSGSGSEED
SMILES,DC50 (HiBit-BRM fusion protein),BRM HiBit Degradation Maximum measured (HiBit-BRM fusion protein),DC50 [1],Dmax [1]
"CS(=O)(=O)n1ccc(C(=O)NCC(=O)Nc2nc(-c3cccc(-c4ccnc(C5(C(=O)NCCCCCCCCNC(=O)COc6cccc7c6C(=O)N(C6CCC(=O)NC6=O)C7=O)CC5)c4)c3)cs2)c1 (stereo not shown) [Compound 13, N-(2-((4-(3-(2-(1-((8-(2-((2-(2,6-dioxopiperidin-3-yl)-1,3-dioxoisoindolin-4-yl)oxy)acetamido)octyl)carbamoyl)-cyclopropyl)pyridin-4-yl)phenyl)thiazol-2-yl)amino)-2-oxoethyl)-1-(methylsulfonyl)-1H-pyrrole-3-carboxamide]",> 10 µM,C (‘C’ = Maximum degradation <50%),0.1 to 1 µM,50 to 75%
"CS(=O)(=O)n1ccc(C(=O)NCC(=O)Nc2nc(-c3cccc(-c4ccnc(C5(C(=O)N6CCC(C7CCN(C(=O)COc8cccc9c8C(=O)N(C8CCC(=O)NC8=O)C9=O)CC7)CC6)CC5)c4)c3)cs2)c1 (stereo not shown) [Compound 14, N-(2-((4-(3-(2-(1-(1′-(2-((2-(2,6-dioxopiperidin-3-yl)-1,3-dioxoisoindolin-4-yl)oxy)acetyl)-[4,4′-bipiperidine]-1-carbonyl)cyclopropyl)pyridin-4-yl)phenyl)thiazol-2-yl)amino)-2-oxoethyl)-1-(methylsulfonyl)-1H-pyrrole-3-carboxamide]",> 10 µM,C (‘C’ = Maximum degradation <50%),> 10 µM,< 50%
"CN(CC(=O)NCCCCCCCCNC(=O)COc1cccc2c1C(=O)N(C1CCC(=O)NC1=O)C2=O)c1cc(-c2cccc(-c3csc(NC(=O)CNC(=O)c4ccn(S(C)(=O)=O)c4)n3)c2)ccn1 (stereo not shown) [Compound 15, N-(2-((4-(3-(2-((2-((8-(2-((2-(2,6-dioxopiperidin-3-yl)-1,3-dioxoisoindolin-4-yl)oxy)acetamido)octyl)amino)-2-oxoethyl)(methyl)amino)pyridin-4-yl)phenyl)thiazol-2-yl)amino)-2-oxoethyl)-1-(methylsulfonyl)-1H-pyrrole-3-carboxamide]",> 10 µM,C (‘C’ = Maximum degradation <50%),> 10 µM,< 50%
"CN(CC(=O)NCCCCCNc1cccc2c1C(=O)N(C1CCC(=O)NC1=O)C2=O)c1cc(-c2cccc(-c3csc(NC(=O)CNC(=O)c4ccn(S(C)(=O)=O)c4)n3)c2)ccn1 (stereo not shown) [Compound 16, N-(2-((4-(3-(2-((2-((5-((2-(2,6-dioxopiperidin-3-yl)-1,3-dioxoisoindolin-4-yl)amino)pentyl)amino)-2-oxoethyl)(methyl)amino)pyridin-4-yl)phenyl)thiazol-2-yl)amino)-2-oxoethyl)-1-(methylsulfonyl)-1H-pyrrole-3-carboxamide]",> 10 µM,C (‘C’ = Maximum degradation <50%),> 10 µM,< 50%
"CN(CC(=O)N1CCC(C2CCN(C(=O)COc3cccc4c3C(=O)N(C3CCC(=O)NC3=O)C4=O)CC2)CC1)c1cc(-c2cccc(-c3csc(NC(=O)CNC(=O)c4ccn(S(C)(=O)=O)c4)n3)c2)ccn1 (stereo not shown) [Compound 17, N-(2-((4-(3-(2-((2-(1′-(2-((2-(2,6-dioxopiperidin-3-yl)-1,3-dioxoisoindolin-4-yl)oxy)acetyl)-[4,4′-bipiperidin]-1-yl)-2-oxoethyl)(methyl)amino)pyridin-4-yl)phenyl)thiazol-2-yl)amino)-2-oxoethyl)-1-(methylsulfonyl)-1H-pyrrole-3-carboxamide]",> 10 µM,C (‘C’ = Maximum degradation <50%),> 10 µM,< 50%
"Cc1ncsc1-c1ccc(CNC(=O)[C@@H]2C[C@@H](O)CN2C(=O)[C@@H](NC(=O)COCC(=O)NCc2cccc(-c3cccc(-c4csc(NC(=O)CNC(=O)c5ccn(S(C)(=O)=O)c5)n4)c3)c2)C(C)(C)C)cc1 [Compound 18, N-[2-[[4-[3-[3-[[[2-[2-[[(1S)-1-[(2S,4R)-4-hydroxy-2-[[4-(4-methylthiazol-5-yl)phenyl]methylcarbamoyl]pyrrolidine-1-carbonyl]-2,2-dimethyl-propyl]amino]-2-oxo-ethoxy]acetyl]amino]methyl]-phenyl]phenyl]thiazol-2-yl]amino]-2-oxo-ethyl]-1-methylsulfonyl-pyrrole-3-carboxamide]",> 10 µM,C (‘C’ = Maximum degradation <50%),> 10 µM,< 50%
"Cc1ncsc1-c1ccc(CNC(=O)[C@@H]2C[C@@H](O)CN2C(=O)[C@@H](NC(=O)CCCCCCCCC(=O)NCc2cccc(-c3cccc(-c4csc(NC(=O)CNC(=O)c5ccn(S(C)(=O)=O)c5)n4)c3)c2)C(C)(C)C)cc1 [Compound 19, N′-[(1S)-1-[(2S,4R)-4-hydroxy-2-[[4-(4-methylthiazol-5-yl)phenyl]methylcarbamoyl]pyrrolidine-1-carbonyl]-2,2-dimethylpropyl]-N-[[3-[3-[2-[[2-[(1-methylsulfonylpyrrole-3-carbonyl)amino]acetyl]amino]thiazol-4-yl]phenyl]phenyl]methyl]decanediamide]",< 0.1 µM,A (‘A’ = Maximum degradation >75%),0.1 to 1 µM,> 75%
"CS(=O)(=O)n1ccc(C(=O)NCC(=O)Nc2nc(-c3cccc(-c4cccc(CNC(=O)CCCCCCCCNc5cccc6c5C(=O)N(C5CCC(=O)NC5=O)C6=O)c4)c3)cs2)c1 (stereo not shown) [Compound 20, N-(2-((4-(3′-((9-((2-(2,6-dioxopiperidin-3-yl)-1,3-dioxoisoindolin-4-yl)amino)nonanamido)methyl)-[1,1′-biphenyl]-3-yl)thiazol-2-yl)amino)-2-oxoethyl)-1-(methylsulfonyl)-1H-pyrrole-3-carboxamide]",> 10 µM,C (‘C’ = Maximum degradation <50%),> 10 µM,50 to 75%
"CN(CCNC(=O)CN(C)c1cc(-c2cccc(-c3csc(NC(=O)CNC(=O)c4ccn(S(C)(=O)=O)c4)n3)c2)ccn1)CCNc1cccc2c1C(=O)N(C1CCC(=O)NC1=O)C2=O (stereo not shown) [Compound 21, N-(2-((4-(3-(2-((2-((2-((2-((2-(2,6-dioxopiperidin-3-yl)-1,3-dioxoisoindolin-4-yl)amino)ethyl)(methyl)amino)ethyl)amino)-2-oxoethyl)(methyl)amino)pyridin-4-yl)phenyl)thiazol-2-yl)amino)-2-oxoethyl)-1-(methylsulfonyl)-1H-pyrrole-3-carboxamide]",> 10 µM,C (‘C’ = Maximum degradation <50%),> 10 µM,< 50%
CN(CC(=O)N1CC(COc2cccc3c2C(=O)N(C2CCC(=O)NC2=O)C3=O)C1)c1cc(-c2cccc(-c3csc(NC(=O)CNC(=O)c4ccn(S(C)(=O)=O)c4)n3)c2)ccn1 (stereo not shown) [Compound 27],> 10 µM,C (‘C’ = Maximum degradation <50%),> 10 µM,< 50%
CN(CC(=O)NCCCCS(=O)(=O)CCCNc1cccc2c1C(=O)N(C1CCC(=O)NC1=O)C2=O)c1cc(-c2cccc(-c3csc(NC(=O)CNC(=O)c4ccn(S(C)(=O)=O)c4)n3)c2)ccn1 (stereo not shown) [Compound 29],> 10 µM,C (‘C’ = Maximum degradation <50%),> 10 µM,< 50%
CS(=O)(=O)n1ccc(C(=O)NCC(=O)Nc2nc(-c3cccc(-c4cccc(CNC(=O)CCCOc5cccc6c5C(=O)N(C5CCC(=O)NC5=O)C6=O)c4)c3)cs2)c1 (stereo not shown) [Compound 30],> 10 µM,C (‘C’ = Maximum degradation <50%),> 10 µM,< 50%
"CS(=O)(=O)n1ccc(C(=O)NCC(=O)Nc2nc(-c3cccc(-c4ccnc(N5CCN(C(=O)CCOCCOCCNc6cccc7c6C(=O)N(C6CCC(=O)NC6=O)C7=O)CC5)c4)c3)cs2)c1 (stereo not shown) [Compound 31, N-[2-[[4-[3-[2-[4-[3-[2-[2-[[2-(2,6-dioxo-3-piperidyl)-1,3-dioxo-isoindolin-4-yl]amino]ethoxy]ethoxy]propanoyl]piperazin-1-yl]-4-pyridyl]phenyl]thiazol-2-yl]amino]-2-oxo-ethyl]-1-methylsulfonyl-pyrrole-3-carboxamide]",0.1 to 1 µM,A (‘A’ = Maximum degradation >75%),0.1 to 1 µM,> 75%
